Test results: patent publication US8039438B2, “Synthetic peptides that cause F-actin bundling and block actin depolymerization” (The Regents of the University of California, priority 2003, dated 2011)

Legend:
[1] = test system: dextran-labeled electroporated cells; assay: Change in number of dextran-labeled cells after electroporation with peptide; assay type: cell-based; conditions: for % change in cell number: dextran-labeled cells counted before and after 18 hrs incubation
Experimental: Electroporated cells were treated with fluorescent dextran plus peptide so those cells receiving the peptide could be identified. Typically a very small number of cells successfully incorporate substance during electroporation, making it difficult to identify those receiving peptide. Typically one sees 10-20% incorporation. But, there is good evidence showing that if a cell incorporates one component in buffer, it will incorporate all components. Thus, dextran can be used to identify those cells receiving peptide. After electroporation of cells with fluorescent dextran and the active peptide SEQ ID NO: 12, the dextran-labeled cells were initially counted and then incubated for 18 hrs. After incubation overnight, the dextran-labeled cells were once again counted. The following Tables 4 and 5 show the average change in dextran-labeled cells after the cells are electroporated and the peptide has invaded the cell body. The cell numbers of the SS12 treated peptide seemed to fluctuate after incubation with various concentrations of the SS12 peptide.

[2] = test system: actin comet tails in Xenopus egg extracts; assay: Actin comet-tail formation in cytoplasmic extracts; assay type: biochemical, Xenopus laevis
Experimental: In FIGS. 4A and 4B, in vitro polymerized actin forms comet tail from rhodamine-labeled actin added to Xenopus laevis egg cytoplasmic extract. This was set up according to the protocol in Taunton et al., J Cell Biol. 2000 Feb. 7; 148(3):519-30.
Crude Xenopus egg extract was prepared as described except that cytochalasin D was omitted (Murray and Kirschner, Nature. 1989 May 25; 339(6222):275-80). Cytosol and a heavy membrane fraction were prepared by centrifugation of the crude extract (2 h, 300.000 g max; BECKMAN SW-50 rotor). The viscous glycogen pellet beneath the membrane layer was discarded. Cytosol was further clarified by spinning for 15 min at 541,000 g max (BECKMAN TLA 100.3 rotor). Crude membranes (diluted with one volume of 2 M sucrose) and cytosol were snap frozen in separate aliquots for storage at −80° C. unless otherwise indicated. Clarified cytosol contained a small population of vesicles, but motility assays were far more robust (more comet tails over a longer time period) when cytosol was supplemented with the heavy membrane fraction.
For the standard assay, crude membranes in 1 M sucrose (20-μl aliquot, derived from ˜80 μl crude extract) were washed and resuspended in 14 μl buffer A (50 mM NaCl, 5 mM MgCl2, and 50 mM tris [pH 7.5]). To the membrane suspension were added 35 μl cytosol (derived from ˜80 μl crude extract), 0.3 μl rhodamine-labeled actin (prepared according to Kellogg et al., Development. 1988 August; 103(4):675-86), 3 μl PMA (20 μM stock in 10% DMSO), and 20 μl buffer A at 4° C. 20-μl samples were then warmed to room temperature. After 30-40 min, 2-μl aliquots were viewed with a Nikon E800 microscope to yield the photomicrographs of FIG. 4. Images were acquired with a Princeton Instruments cooled CCD camera (standard rhodamine filter set, Princeton Instruments, Trenton, N.J.) and analyzed with WINVIEW (Visitron System, Puchheim, Germany) or METAMORPH software (Princeton Instruments, Trenton, N.J.). Pixels having an intensity over a threshold value (set to a value greater than the background fluorescence in regions devoid of comet tails) were summed over 10 random fields to quantitate relative actin assembly.
Cytosol was supplemented with a crude membrane fraction, rhodamine-actin, 1 μM PMA and peptide SS2 or SS12 (1 μM). After incubating at room temperature for 20 min, samples were viewed by fluorescence. Actin comet tails formed in Xenopus cytoplasmic extracts where no SS2 or SS12 peptides were added as shown by the photographs A, B and E of FIG. 4.

Sequence: GIVRKWISRFEVWPYL (SS12 active synthetic peptide)
- increase in cell population after incubation ([1]; compared with SS1 control peptide-treated cells): did not exhibit the expected increase in cell population
- % change in cell number [1]: −12.5%
- % change in cell number ([1]; peptide concentration 0.2 μM): +13.21%
- % change in cell number ([1]; peptide concentration 1.0 μM): −1.5%
- % change in cell number ([1]; peptide concentration 10.0 μM): −8.6%
- effect on actin comet tails ([2]; FIGS. 4C, 4D, 4F, concentration not given): complete disruption of the comet tails
- actin comet tail formation ([2]; peptide 1 μM, 1 μM PMA, 20 min at room temperature): little or no actin comet tail formation
